Results: patent US20240130368A1, “HERBICIDAL COMPOSITION” (Nippon Soda Co., Ltd., priority 2021, published 2024)
Where two headings read alike, the source gives them in different places.

Legend:
Format in all cases: in vivo
Ipomoea hederacea = assay: Test Example 6: foliar spraying treatment, herbicidal effect from above ground weight; conditions: Compound (I-3) alone
Experimental: (§1) POA allylphenyl ether (4.1 parts by weight), POE-POP glycol (1 part by weight), POE sorbitan laurate (0.8 parts by weight), glycerin (2.6 parts by weight), dimethylformamide (65.9 parts by weight), N-methylpyrrolidone (5.1 parts by weight), cyclohexanone (15.4 parts by weight), and aromatic hydrocarbons (5.1 parts by weight) were mixed and dissolved to prepare an emulsion. The active ingredient (4 mg) of the composition of the present invention was dissolved in this emulsion (100 μL) to prepare a test emulsion. It should be noted that POA means “polyoxyalkylene”, POE means “polyoxyethylene”, and POP means “polyoxypropylene”.
(§2) A test emulsion was prepared in the same manner as in Test Example 4.
A 300 cm^2 pot was filled with soil, and seeds of Zea mays and Ipomoea hederacea were sown into the surface layer, and then grown in a greenhouse after being covered lightly with soil. When each plant grew to a plant height of 7 to 9 cm, the above test emulsion was diluted so that the amount of the active ingredient became a predetermined amount, and sprayed on the foliage with a small sprayer at a spray water volume of 250 L per hectare.
Test Examples 6-1 and 6-3 were evaluated in the same manner as in Test Example 4.
The expected values of the herbicidal effects in Test Example 6-2 were calculated using the following Colby's formula (Colby, S. R., Calculating synergistic and antagonistic responses of herbicide combinations, Weeds, 15, pp. 20-22 (1967)).
X indicates an herbicidal effect (%) by applying the compound (1) alone, Y and Z each indicate an herbicidal effect (%) by applying one of the two types of the compounds (II) alone, and E indicates an expected value (%) of the herbicidal effect by applying combinations of the compound (I) and two types of the compounds (II).
When the actual measured value (%) of the herbicidal effect by the combined application of the compound (I) and two types of the compounds (11) is greater than the expected value E, it can be regarded that the combined application of the compound (1) and two types of the compounds (II) has a synergistic effect.
The following grass species were used as grass species to be controlled [scientific names]. • Morning glory [Ipomoea hederacea]

Abutilon theophrasti = assay: Test Example 3: seeds on filter paper moistened with chemical solution, herbicidal effect visually evaluated; conditions: Compound (I-3) alone, 6 days after the treatment
Experimental: (§3) The compound (I) or compound (II) was prepared into a 5% emulsion using DMF (containing 1.5% Tween) and diluted with water to a prescribed dosage concentration. Commercially available preparations were dissolved in water and adjusted to a prescribed dosage concentration.
(§4) Seeds were soaked in 0.6% sodium hypochlorite for a predetermined time for surface sterilization and washed with water for use (seed disinfection). Seeds of Ambrosia artemisiifolia were used for the test.
(§5) Filter paper was placed on a cup (diameter: 10 cm, height: 4 cm) with a lid and moistened with 8 ml of chemical solution, and seeds were sown thereon, and after covering with a lid, grown in a constant temperature room.
(§6) The herbicidal effects were visually evaluated, 6 days after the treatment, as the herbicidal effect (%), by comparing with a state of an untreated group using a total of 21 scores of withering index from 0 to 20 (0: mortality rate equivalent to that of the untreated group, 20: mortality rate of 100%).
(§7) In addition, the expected values of the herbicidal effects were calculated from the herbicidal effects in a case where the compound (I) alone was applied and the herbicidal effects in a case where the compound (II) alone was applied by using the Colby's formula (Colby, S. R., Calculating synergistic and antagonistic responses of herbicide combinations, Weeds, 15, pp. 20-22 (1967)).
(§8) M indicates an herbicidal effect (%) in the application of the compound (I) alone, N indicates an herbicidal effect (%) in the application of the compound (II) alone, and E indicates an expected value (%) of the herbicidal effect in the combined application of the compound (T) and the compound (TT). When the actual measured value (%) of the herbicidal effect in the combined application of the compound (I) and the compound (II) is greater than the expected value E, it can be regarded that the combined application of the compound (I) and the compound (II) has a synergistic effect.
The herbicidal effects were evaluated by the same method as in Test Example 1 except that the seeds used in the test were changed from Ambrosia artemisiifolia to Abutilon theophrasti.

[1] = tested on: multidrug-resistant Alopecurus myosuroides; assay: Test Example 5: spraying on the soil surface, herbicidal effect from above ground weight; conditions: Compound (I-3) alone, sprayed on the soil surface, seven weeks after spraying, Alopecurus myosuroides multidrug-resistant strain
Experimental: as §1
(§9) For the evaluation of the herbicidal effects, the above ground weights of weeds in the untreated and treated areas were measured for each weed 3 weeks after spraying treatment, and the herbicidal effect (%) was calculated by the following calculation formula.
(§10) Herbicidal effect (%)=[(above ground weight of weeds in untreated area)−(above ground weight of weeds in treated area)/(above ground weight of weeds in untreated area)]×100
as §2
(§11) A 300 cm^2 pot was filled with soil, and seeds of Triticum aestivum, multidrug-resistant Alopecurus myosuroides, Lolium multiflorum and Avena fatua were sown into the surface layer, and covered with soil to a thickness of 0.5 to 1 cm. The above test emulsion was diluted so that the amount of the active ingredient became a predetermined amount, and sprayed on the soil surface at a spray water volume of 250 L per hectare, followed by growth in an outdoor environment.
(§12) Seven weeks after spraying, the evaluation was carried out in the same manner as in Test Example 4, except that the above ground weights of weeds in the untreated and treated areas were measured for each weed.
(§13) The following grass species were used as grass species to be controlled [scientific names]. • Blackgrass * [Alopecurus myosuroides] • Italian ryegrass [Lolium multiflorum] • Wild oat [Avena fatua]

Avena fatua = assay: as above; conditions: Compound (I-3) alone, sprayed on the soil surface, seven weeks after spraying
Experimental: as §1, §9, §10, §2, §11, §12, §13

Lolium multiflorum = assay: as above; conditions: Compound (I-3) alone, sprayed on the soil surface, seven weeks after spraying
Experimental: as §1, §9, §10, §2, §11, §12, §13

Ambrosia artemisiifolia = assay: Test Example 1: seeds on filter paper moistened with chemical solution, herbicidal effect visually evaluated; conditions: Ambrosia artemisiifolia, 144 h, visually evaluated 6 days after treatment
Experimental: As the compound (1), 1-methoxy-3-methyl-6-(1,1-dioxido-8-(trifluoromethyl)thiochroman-5-yl)-7-oxa-3,4-diazabicyclo[4.1.0]hept-4-en-2-one (Compound (I-3)) was used.
as §3, §4, §5, §6, §7, §8

Digitaria ciliaris = assay: Test Example 2: seeds on filter paper moistened with chemical solution, herbicidal effect visually evaluated; conditions: Compound (I-3) alone, 0.2 ppm, 6 days after the treatment
Triticum aestivum = assay: Test Example 5: spraying on the soil surface, herbicidal effect from above ground weight (useful plant); conditions: Compound (I-3) alone, sprayed on the soil surface, seven weeks after spraying
Experimental: as §1, §9, §10, §2, §11, §12
The following plants were used as useful plants [scientific names]. • Wheat [Triticum aestivum]

COC12OC1(c1ccc(C(F)(F)F)c3c1CCCS3(=O)=O)C=NN(C)C2=O (stereo not drawn) [Compound (I-3), 1-methoxy-3-methyl-6-(1,1-dioxido-8-(trifluoromethyl)thiochroman-5-yl)-7-oxa-3,4-diazabicyclo[4.1.0]hept-4-en-2-one]
Actual measured value of herbicidal effect (Ipomoea hederacea; 94 gai/ha): 80%
Actual measured value of herbicidal effect (Ipomoea hederacea; 125 gai/ha): 60%
Herbicidal effect (Abutilon theophrasti; 0.2 ppm): 75%
Herbicidal effect (Abutilon theophrasti; 3.1 ppm): 75%
Actual measured value of herbicidal effect ([1]; 63 gai/ha): 0%
Actual measured value of herbicidal effect ([1]; 125 gai/ha): 30%
Actual measured value of herbicidal effect (Avena fatua; 63 gai/ha): 0%
Actual measured value of herbicidal effect (Avena fatua; 125 gai/ha): 20%
Actual measured value of herbicidal effect (Lolium multiflorum; 63 gai/ha): 60%
Actual measured value of herbicidal effect (Lolium multiflorum; 125 gai/ha): 80%
pest or weed control at 3.1 ppm (Ambrosia artemisiifolia; read-out: Herbicidal effect (%), applied alone, amount of active ingredient 3.1 ppm): 65%
pest or weed control at 3.1 ppm (Ambrosia artemisiifolia; read-out: Herbicidal effect (%), compound applied alone, amount of active ingredient 3.1 ppm): 70%
Herbicidal effect (Digitaria ciliaris): 75%
Actual measured value of herbicidal effect (Triticum aestivum; 63 gai/ha): 0%
Actual measured value of herbicidal effect (Triticum aestivum; 125 gai/ha): 0%
